Reference: patent US11691984B2, “Compounds and methods for DCAF-mediated protein degradation” (The Scripps Research Institute, priority 2018, dated 2023)
Residues, ends and D or L forms follow the SMILES beside them. *: point of attachment. Cbz = O=C(OCc1ccccc1)*

Key:
[1] = target: T1, FLAG-FKBP12 (Homo sapiens, UniProt P62942); experiment: Anti-FLAG western blot of stably expressed cytosolic FKBP12 (FLAG-FKBP12) in HEK293T cells; assay type: cell-based; conditions: lenalidomide-SLF positive control, 4 or 24 h
T1 construct: expressed in transfected cells; host or cells: HEK293T (lentiviral transduction, puromycin selection)
T1 sequence (P62942 whole entry): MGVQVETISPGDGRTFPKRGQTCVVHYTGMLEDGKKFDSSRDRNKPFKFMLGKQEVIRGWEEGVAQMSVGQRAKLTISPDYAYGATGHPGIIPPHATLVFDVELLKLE
From the text: (§1) FLAG-tagged variants of FKBP12 (FLAG-FKBP12) or (2) FKBP12 with a C-terminal nuclear localization sequence (FLAG-FKBP12_NLS) were then stably expressed in HEK293T cells to provide cell models for evaluating cytosolic- and nuclear-localized E3-mediated degradation pathways, respectively.
FLAG-FKBP12 or FLAG-FKBP12_NLS lentivirus was generated by co-transfection of FLAG-FKBP12 or FLAG-FKBP12_NLS, pCMV-dR8.2 and pMD2.G into HEK 293T cells using FuGene 6 transfection reagent (Promega). Virus-containing medium were collected 48 h after transfection, filtered with […] filter, and used to transduce HEK293T and MDA-MB-231 cells in the presence of 10 μg/mL polybrene (Santa Cruz). 72 h after transduction, puromycin (2 μg/mL) was added to cells. HEK293T cells stably expressing FLAG-FKBP12 or FLAG-FKBP12_NLS were obtained after puromycin selection for 7 days. […]
Cells were collected and lysed in 1% NP-40 lysis buffer (25 mM Tris-HCl pH 7.4, 150 mM NaCl, 10% glycerol, 1% Nonidet P-40) with complete protease inhibitor cocktail (Roche). […] Protein concentration was determined by DC assay (Bio-Rad). […] The chemiluminescence signal in membrane was recorded after developing in ECL or ECL plus western blotting detection reagent using CL-XPosure film (Thermo Scientific). Relative band intensities were quantified using ImageJ.

[2] = target: T2, FLAG-FKBP12_NLS (Homo sapiens, UniProt P62942); experiment: Anti-FLAG western blot of stably expressed nuclear FKBP12 (FLAG-FKBP12_NLS) in HEK293T cells; assay type: cell-based; parameters: expressed in transfected cells; host or cells: HEK293T, MDA-MB-231 and HEK293 DCAF16+/+ and DCAF16-/- clones (lentiviral pCDH-CMV-MCS-EF1-Puro); conditions: for effect of inhibitor on KB02-SLF-mediated loss of FKBP12_NLS: KB02-SLF 1 μM with MG132 10 μM or MLN4924 1 μM; for nuclear FKBP12 (FKBP12_NLS) protein level: 2 μM, 8 or 24 h
T2 sequence (P62942 whole entry): as above
From the text: as §1
(§2) FLAG-FKBP12 or FLAG-FKBP12_NLS lentivirus was generated by co-transfection of FLAG-FKBP12 or FLAG-FKBP12_NLS, pCMV-dR8.2 and pMD2.G into HEK 293T cells using FuGene 6 transfection reagent (Promega). Virus-containing medium were collected 48 h after transfection, filtered with […] filter, and used to transduce HEK293T and MDA-MB-231 cells in the presence of 10 μg/mL polybrene (Santa Cruz). 72 h after transduction, puromycin (2 μg/mL) was added to cells. HEK293T cells stably expressing FLAG-FKBP12 or FLAG-FKBP12_NLS were obtained after puromycin selection for 7 days. HEK293T cells stably expressing pCDH empty vector were generated in parallel as control.
shRNA lentivirus was generated by co-transfection of shRNA-containing vector, pCMV-dR8.2 and pMD2.G into HEK 293T cells using FuGene 6 transfection reagent (Promega). Virus-containing medium were collected 48 h after transfection and used to transiently transduce HEK293T cells stably expressing FLAG-FKBP12_NLS for 48 h. Lentiviral shRNAs targeting human DCAF16 or DTL were in pLKO.1 vector and purchased from Sigma. The sequences of shRNAs is described below.
(§3) Cells were collected and lysed in 1% NP-40 lysis buffer (25 mM Tris-HCl pH 7.4, 150 mM NaCl, 10% glycerol, 1% Nonidet P-40) with complete protease inhibitor cocktail (Roche). Cells were vortexed and sonicated for 5 pulses (40%, 4). The supernatant was collected after centrifugation at 16,000 g for 10 min at 4° C. Protein concentration was determined by DC assay (Bio-Rad). Protein lysate was heated at 95° C. for 5 min in 1× Laemmli sample buffer. Proteins were resolved by 12% or 14% Novex Tris-Glycine Mini Gels (Invitrogen) and transferred to polyvinylidene fluoride (PVDF) membrane (0.2 Bio-Rad). The membrane was blocked with 5% BSA in TBST buffer (0.1% Tween 20, 20 mM Tris-HCl 7.6, 150 mM NaCl) at room temperature for 1 h. The antibody was diluted with fresh 5% BSA in TBST buffer (1:10000 dilution for FLAG, HA and β-Actin, 1:1000 dilution for others) and incubated with membrane (1 h room temperature for FLAG, HA and β-Actin, overnight 4° C. for others). Membrane was washed three times with TBST buffer and incubated with secondary antibody (1:5000 dilution in 5% BSA in TBST) at room temperature for 1 h. Membrane was washed three times with TBST buffer. The chemiluminescence signal in membrane was recorded after developing in ECL or ECL plus western blotting detection reagent using CL-XPosure film (Thermo Scientific). Relative band intensities were quantified using ImageJ.

[3] = target: T3, BRD4 (Homo sapiens, UniProt O60885); experiment: Western blot of endogenous BRD4 in HEK293T cells; assay type: cell-based; conditions: 20 μM KB02-JQ1; 10 μM MG132 or 1 μM MLN4924
T3 construct: degradation of endogenous BRD4 in HEK293T cells; endogenous in cells; host or cells: HEK293T (A10, A16); HEK293 DCAF16+/+ and DCAF16-/- clones (A11)
Description: as §3

[4] = target: T2, FLAG-FKBP12_NLS; experiment: Western blot of stably expressed FLAG-FKBP12_NLS in MDA-MB-231 cells; assay type: cell-based; parameters: expressed in transfected cells; host or cells: HEK293T, MDA-MB-231 and HEK293 DCAF16+/+ and DCAF16-/- clones (lentiviral pCDH-CMV-MCS-EF1-Puro); conditions: 8 hours; for effect of inhibitor on degradation of FLAG-FKBP12_NLS in MDA-MB-231 cells: KB02-PEG0-SLF, KB02-SLF or KB02-PEG4-SLF 1 μM
Description: as §2, §3

[5] = system: HEK293T cells; experiment: Cell viability assay (Cell Titer Glo); assay type: cell-based, human; conditions: 24 hours, read-out: cytotoxicity IC50
Description: HEK293T cells were seeded in 96-well clear bottom white plate (Corning) at 3×10^4 cells per well in 100 μL of DMEM medium and grown for 24 h. The cells were treated with 0.625, 1.25, 2.5, 5, 10, 20 and 40 μM of KB02-SLF or KB02-JQ1 (DMSO stock, final DMEM concentration is 0.1% (v/v)) in 100 μL of DMEM medium for 24 h. 50 μL of Cell Titer Glo reagent (Promega) was added to each well and incubate for 10 min at room temperature. The luminescence was read on CLARIOstar (BMG LAB TECH).

[6] = target: T4, HA-DCAF16 and FLAG-FKBP12_NLS (Homo sapiens, UniProt P62942+Q9NXF7); experiment: Co-immunoprecipitation of HA-DCAF16 with FLAG-FKBP12_NLS (ternary complex) in HEK293T cells; assay type: cell-based; conditions: 5 μM, MG132 10 μM, 2 hours
T4 construct: expressed in transfected cells; host or cells: HEK293T stably expressing FLAG-FKBP12_NLS, transiently transfected with HA-DCAF16 (pRK5)
T4 sequence (Q9NXF7 whole entry): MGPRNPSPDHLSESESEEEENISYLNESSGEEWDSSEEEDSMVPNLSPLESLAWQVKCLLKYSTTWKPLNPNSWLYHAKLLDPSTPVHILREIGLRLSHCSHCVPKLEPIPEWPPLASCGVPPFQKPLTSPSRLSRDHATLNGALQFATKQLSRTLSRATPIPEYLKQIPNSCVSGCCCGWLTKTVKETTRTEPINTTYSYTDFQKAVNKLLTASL
T4 sequence (P62942 2-108): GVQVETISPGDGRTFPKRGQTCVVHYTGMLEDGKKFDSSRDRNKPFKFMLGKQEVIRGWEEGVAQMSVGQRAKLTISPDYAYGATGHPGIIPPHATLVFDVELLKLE
T4 sequence (Q16531 whole entry partner): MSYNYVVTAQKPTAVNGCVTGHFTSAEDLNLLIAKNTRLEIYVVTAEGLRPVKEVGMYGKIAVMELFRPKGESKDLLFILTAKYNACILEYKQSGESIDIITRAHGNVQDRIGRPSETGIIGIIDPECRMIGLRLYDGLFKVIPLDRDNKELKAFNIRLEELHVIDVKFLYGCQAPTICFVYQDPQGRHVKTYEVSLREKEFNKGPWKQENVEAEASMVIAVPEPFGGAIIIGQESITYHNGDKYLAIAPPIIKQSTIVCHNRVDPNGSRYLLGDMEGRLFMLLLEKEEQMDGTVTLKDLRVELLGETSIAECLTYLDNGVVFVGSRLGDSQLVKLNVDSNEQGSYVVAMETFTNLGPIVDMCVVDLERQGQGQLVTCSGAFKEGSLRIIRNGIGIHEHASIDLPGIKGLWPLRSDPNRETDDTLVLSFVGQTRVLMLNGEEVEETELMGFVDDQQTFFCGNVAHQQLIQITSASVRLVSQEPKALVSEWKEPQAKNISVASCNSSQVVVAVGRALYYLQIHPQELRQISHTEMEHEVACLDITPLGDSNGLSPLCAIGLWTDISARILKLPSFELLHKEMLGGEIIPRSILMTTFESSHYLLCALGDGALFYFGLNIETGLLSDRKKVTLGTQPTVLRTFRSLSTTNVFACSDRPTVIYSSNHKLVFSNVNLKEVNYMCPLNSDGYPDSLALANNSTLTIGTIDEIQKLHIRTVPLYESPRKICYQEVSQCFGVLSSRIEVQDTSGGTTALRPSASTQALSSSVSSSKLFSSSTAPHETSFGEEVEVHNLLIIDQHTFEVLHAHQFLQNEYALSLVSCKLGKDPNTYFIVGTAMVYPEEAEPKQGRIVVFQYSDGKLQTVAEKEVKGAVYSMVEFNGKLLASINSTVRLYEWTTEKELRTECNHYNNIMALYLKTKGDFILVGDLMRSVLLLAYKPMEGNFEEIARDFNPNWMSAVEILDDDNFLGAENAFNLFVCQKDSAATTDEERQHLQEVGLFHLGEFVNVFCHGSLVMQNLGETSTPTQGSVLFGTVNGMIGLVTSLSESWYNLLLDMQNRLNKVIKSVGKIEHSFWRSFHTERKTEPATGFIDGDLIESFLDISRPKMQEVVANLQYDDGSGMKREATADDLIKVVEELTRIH
Description: as §3
Cells were collected and lysed in 1% NP-40 lysis buffer with complete protease inhibitor cocktail on ice for 10 min, followed by 5 pulses of sonication (40%, 4). After centrifugation at 16,000 g for 10 min at 4° C., the supernatant was collected. FLAG affinity gel (20 μL slurry per sample) was incubated with protein lysates at 4° C. for 1 h and washed four times with IP washing buffer. The affinity gel was heated at 95° C. for 10 min in 2× Laemmli sample buffer, followed by western blot analysis.

In the case of `CCC(C)(C)C(=O)C(=O)N1CCCC[C@H]1C(=O)O[C@H](CCc1ccc(OC)c(OC)c1)c1cccc(NC(=O)CCCC(=O)NCCCCC(=O)Nc2cccc3c2CN(C2CCC(=O)NC2=O)C3=O)c1` (stereo partly drawn) [lenalidomide-SLF, (1R)-3-(3,4-dimethoxyphenyl)-1-(3-(5-((5-((2-(2,6-dioxopiperidin-3-yl)-1-oxoisoindolin-4-yl)amino)-5-oxopentyl)amino)-5-oxopentanamido)phenyl)propyl (2S)-1-(3,3-dimethyl-2-oxopentanoyl)piperidine-2-carboxylate, reference compound], the “cytosolic FKBP12 degradation” value [1] is reported as “degraded” and the “nuclear FKBP12 degradation” value ([2]; HEK293T, lenalidomide-SLF positive control, 4 or 24 h) is reported as “degraded”.

`CC(C)C[C@@H](C=O)NC(=O)[C@H](CC(C)C)NC(=O)[C@H](CC(C)C)NC(=O)OCc1ccccc1` [MG132, reference compound] (Cbz-Leu-Leu-Leu-aldehyde) was tested, and the “effect of inhibitor on KB02-JQ1-mediated BRD4 degradation” value [3] was “blocked”, the “effect of inhibitor on KB02-SLF-mediated loss of FKBP12_NLS” value ([2]; 8 h) was “blocked” and the “effect of inhibitor on degradation of FLAG-FKBP12_NLS in MDA-MB-231 cells” value [4] was “blocked”.

In the case of `NS(=O)(=O)OC[C@@H]1C[C@@H](n2ccc3c(N[C@H]4CCc5ccccc54)ncnc32)C[C@@H]1O` [MLN4924, reference compound], the “effect of inhibitor on KB02-JQ1-mediated BRD4 degradation” value [3] is reported as “blocked”, the “effect of inhibitor on KB02-SLF-mediated loss of FKBP12_NLS” value ([2]; 8 h) is reported as “blocked” and the “effect of inhibitor on degradation of FLAG-FKBP12_NLS in MDA-MB-231 cells” value [4] is reported as “blocked”.

With `COc1ccc2c(c1)CCCN2C(=O)CCl` [KB02, reference compound] the IC50 [5] was 23 ± 1.2 µM and the “FKBP12_NLS level in cells treated with the separate components of KB02-SLF” value ([2]; HEK293T, 1.5 μM, 8 h) was “FKBP12_NLS was not reduced”.

With `CCC(C)(C)C(=O)C(=O)N1CCCC[C@H]1C(=O)O[C@H](CCc1ccc(OC)c(OC)c1)c1cccc(NC(=O)CCOCCOCCOCCOCCNC(=O)COc2ccc3c(c2)CCCN3C(=O)CCl)c1` [KB02-PEG4-SLF, (R)-1-(3-(1-((1-(2-chloroacetyl)-1,2,3,4-tetrahydroquinolin-6-yl)oxy)-2-oxo-6,9,12,15-tetraoxa-3-azaoctadecan-18-amido)phenyl)-3-(3,4-dimethoxyphenyl)propyl (S)-1-(3,3-dimethyl-2-oxopentanoyl)piperidine-2-carboxylate] the “co-immunoprecipitation of HA-DCAF16 with FLAG-FKBP12_NLS” value (shortened to “co-immunoprecipitation of HA-DCAF16”) [6] was “co-immunoprecipitated with HA-DCAF16” and the “degradation of FLAG-FKBP12_NLS in MDA-MB-231 cells” value ([4]; 1 μM) was “degradation of stably expressed FLAG-FKBP12_NLS”.

In the case of `C=CC(=O)N(c1ccc(Br)cc1)c1ccc(C(=O)NCCOCCOCCOCCC(=O)Nc2cccc([C@@H](CCc3ccc(OC)c(OC)c3)OC(=O)[C@@H]3CCCCN3C(=O)C(=O)C(C)(C)CC)c2)cc1` [KB05-SLF, (R)-1-(3-(1-(4-(N-(4-bromophenyl)acrylamido)phenyl)-1-oxo-5,8,11-trioxa-2-azatetradecan-14-amido)phenyl)-3-(3,4-dimethoxyphenyl)propyl (S)-1-(3,3-dimethyl-2-oxopentanoyl)piperidine-2-carboxylate], the “co-immunoprecipitation of HA-DCAF16” value [6] is reported as “DCAF16 was not co-immunoprecipitated” and the “nuclear FKBP12 (FKBP12_NLS) protein level” value ([2]; HEK293T) is reported as “did not support FKBP12_NLS degradation”.

With `CCC(=O)N1CCCc2cc(OCC(=O)NCCOCCOCCC(=O)Nc3cccc([C@@H](CCc4ccc(OC)c(OC)c4)OC(=O)[C@@H]4CCCCN4C(=O)C(=O)C(C)(C)CC)c3)ccc21` [C-KB02-SLF, (R)-3-(3,4-dimethoxyphenyl)-1-(3-(3-(2-(2-(2-((1-propionyl-1,2,3,4-tetrahydroquinolin-6-yl)oxy)acetamido)ethoxy)ethoxy)propanamido)phenyl)propyl (S)-1-(3,3-dimethyl-2-oxopentanoyl)piperidine-2-carboxylate] the “co-immunoprecipitation of HA-DCAF16” value [6] was “DCAF16 was not co-immunoprecipitated” and the “nuclear FKBP12 (FKBP12_NLS) protein level” value ([2]; HEK293T) was “Reductions in FKBP12_NLS were not observed”.

In the case of `CCC(C)(C)C(=O)C(=O)N1CCCC[C@H]1C(=O)O[C@H](CCc1ccc(OC)c(OC)c1)c1cccc(NC(=O)CCOCCOCCNC(=O)CCNC(=O)c2cc(NC(=O)CCl)cc(C(F)(F)F)c2)c1` [KB03-SLF, (R)-1-(3-(1-(3-(2-chloroacetamido)-5-(trifluoromethyl)phenyl)-1,5-dioxo-9,12-dioxa-2,6-diazapentadecan-15-amido)phenyl)-3-(3,4-dimethoxyphenyl)propyl (S)-1-(3,3-dimethyl-2-oxopentanoyl)piperidine-2-carboxylate], the “co-immunoprecipitation of HA-DCAF16” value [6] is reported as “DCAF16 was not co-immunoprecipitated” and the “nuclear FKBP12 (FKBP12_NLS) protein level” value ([2]; HEK293T) is reported as “did not support FKBP12_NLS degradation”.
